In patent publication US20070244030A1, “Method for Assessing Cancerous State” (SUMITOMO CHEMICAL COMPANY, LIMITED, priority 2003, published 2007):

Columns and labels:
Neurofilament3 gene [1] = experiment: Real Time PCR of Neurofilament3 mRNA in HPAC cultured with methylation inhibitor; format: cell-based, human; settings: HPAC pancreatic cancer cell line, cells recovered on fourth day, not detected without inhibitor
Method: (§1) Two kinds of human-derived pancreatic cancer cell lines (PANC-1 and HPAC) were seeded at a density of about 6×10^5 cells/10 cm plate, and cultured using an exclusively used medium. On the first day after seeding, 5-aza-2′-deoxytidine (manufactured by Sigma) (hereinafter, referred to as 5Aza-dC) which is a methylation inhibitor was added to a medium to give the concentration of 0.5 or 1 μM. Twenty four hours after addition of 5Aza-Dc, the medium was exchanged with the aforementioned medium to which no 5Aza-dC was added, and culturing was continued. Then, on the third day after seeding, 5Aza-dC was added to the medium similarly. […]
(§2) A reaction solution of PCR was used which was obtained by mixing 50 ng of a cDNA as a template, each 1 μl of two kinds of 10 pmol/μl aforementioned primer solution, 4 μl of 2.5 mM dNTP, 4 μl of 5 mM dUTP, 5 μl of 10×SYBR Green PCR Buffer, 6 μof 25 mM MgCl2 and 0.3 μl of a 5 U/μl thermostable DNA polymerase (AmpliTaq Gold), 0.5 μl of AmpEraseUNG and adding sterilized ultrapure water thereto to an amount of solution of 50 μl. […] When a DNA derived from mRNA of Neurofilament3 gene and GAPDH gene was amplified, after the reaction solution Was retained at 95° C. for 10 minutes, Real Time PCR was performed at the conditions under which each cycle was 30 seconds at 95° C., 30 seconds at 59° C. and 30 seconds at 72° C. to quantitate Neurofilament3 gene and GAPDH gene.

Neurofilament3 gene [2] = experiment: Real Time PCR of Neurofilament3 mRNA in PANC-1 cultured with methylation inhibitor; format: cell-based, human; settings: PANC-1 pancreatic cancer cell line, cells recovered on fourth day, not detected without inhibitor
Method: as §1, §2

[3] = 0.5 μM 5Aza-dC added on first and third day
[4] = 1 μM 5Aza-dC added on first and third day

Measured: DNA derived from a mRNA of Neurofilament3 gene (expression of Neurofilament3 gene)

Nc1ncn([C@H]2C[C@H](O)[C@@H](CO)O2)c(=O)n1 [5Aza-dC, 5-aza-2′-deoxytidine]
detected: Neurofilament3 gene [1]; [3] | Neurofilament3 gene [1]; [4] | Neurofilament3 gene [2]; [3] | Neurofilament3 gene [2]; [4]
